In ChEMBL document CHEMBL5046278, “Synthesis and Evaluation of Novel Tetrahydronaphthyridine CXCR4 Antagonists with Improved Drug-like Profiles” (J Med Chem, 2022):

Columns and labels:
[1] = target: T1, Alpha-2C adrenergic receptor (Homo sapiens, UniProt P18825); test: Inhibition of alpha 2C adrenergic receptor (unknown origin)
T1 sequence (P18825 whole entry): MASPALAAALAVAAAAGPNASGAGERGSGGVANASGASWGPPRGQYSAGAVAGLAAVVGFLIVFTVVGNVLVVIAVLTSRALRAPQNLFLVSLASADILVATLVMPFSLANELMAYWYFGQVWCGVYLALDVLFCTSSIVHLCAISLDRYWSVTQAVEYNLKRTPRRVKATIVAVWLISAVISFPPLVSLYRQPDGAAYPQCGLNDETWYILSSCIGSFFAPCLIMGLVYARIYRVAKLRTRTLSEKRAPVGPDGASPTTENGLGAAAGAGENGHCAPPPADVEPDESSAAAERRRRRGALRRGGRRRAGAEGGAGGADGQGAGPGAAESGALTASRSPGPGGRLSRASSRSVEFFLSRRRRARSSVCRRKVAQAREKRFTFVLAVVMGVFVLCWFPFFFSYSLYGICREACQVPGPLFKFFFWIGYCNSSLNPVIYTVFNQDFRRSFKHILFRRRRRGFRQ

[2] = target: C-C chemokine receptor type 5 (Homo sapiens) (UniProt P51681); test: Inhibition of human CCR5 at 10 uM relative to control
Sequence of C-C chemokine receptor type 5 (Homo sapiens) (P51681 whole entry, looked up): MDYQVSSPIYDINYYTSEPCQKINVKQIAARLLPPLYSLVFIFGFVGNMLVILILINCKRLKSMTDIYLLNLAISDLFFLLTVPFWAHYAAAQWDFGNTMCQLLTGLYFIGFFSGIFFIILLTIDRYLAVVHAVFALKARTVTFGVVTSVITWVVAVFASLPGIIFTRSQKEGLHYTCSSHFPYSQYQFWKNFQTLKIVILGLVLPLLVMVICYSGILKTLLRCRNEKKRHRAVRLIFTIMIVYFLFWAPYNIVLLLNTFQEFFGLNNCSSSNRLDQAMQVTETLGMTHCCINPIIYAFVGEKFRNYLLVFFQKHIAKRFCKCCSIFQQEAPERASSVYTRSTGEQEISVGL

[3] = target: C-C chemokine receptor type 6 (Homo sapiens) (UniProt P51684); test: Inhibition of human CCR6 at 10 uM relative to control
Sequence of C-C chemokine receptor type 6 (Homo sapiens) (P51684 whole entry): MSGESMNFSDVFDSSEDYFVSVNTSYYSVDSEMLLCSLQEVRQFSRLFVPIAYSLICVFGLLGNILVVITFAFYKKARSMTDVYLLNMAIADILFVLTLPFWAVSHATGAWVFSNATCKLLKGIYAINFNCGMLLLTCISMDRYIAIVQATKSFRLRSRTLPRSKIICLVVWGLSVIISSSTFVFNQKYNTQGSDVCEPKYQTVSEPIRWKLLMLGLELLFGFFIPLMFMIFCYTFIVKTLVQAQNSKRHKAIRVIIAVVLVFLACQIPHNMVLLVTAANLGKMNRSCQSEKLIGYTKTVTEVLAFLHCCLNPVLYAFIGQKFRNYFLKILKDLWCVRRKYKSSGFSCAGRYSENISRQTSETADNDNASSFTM

[4] = Oral bioavailability in mouse at 10 mg/kg measured at 24 hrs by LC-MS/MS analysis; format: ADME, organism-based; conditions: in vivo
[5] = Oral bioavailability in mouse at 30 mg/kg measured at 24 hrs by LC-MS/MS analysis; format: ADME, organism-based; conditions: in vivo
[6] = Cytotoxicity against human TZM-bl cells assessed as reduction in cell viability incubated for 4 hrs by […] assay; format: toxicity, cell-based; conditions: read-out: TC50
Cytochrome P450 2C19 = Cytochrome P450 2C19 (Homo sapiens, UniProt P33261); test: Inhibition of CYP2C19 (unknown origin); format: ADME
Sequence of Cytochrome P450 2C19 (P33261 whole entry): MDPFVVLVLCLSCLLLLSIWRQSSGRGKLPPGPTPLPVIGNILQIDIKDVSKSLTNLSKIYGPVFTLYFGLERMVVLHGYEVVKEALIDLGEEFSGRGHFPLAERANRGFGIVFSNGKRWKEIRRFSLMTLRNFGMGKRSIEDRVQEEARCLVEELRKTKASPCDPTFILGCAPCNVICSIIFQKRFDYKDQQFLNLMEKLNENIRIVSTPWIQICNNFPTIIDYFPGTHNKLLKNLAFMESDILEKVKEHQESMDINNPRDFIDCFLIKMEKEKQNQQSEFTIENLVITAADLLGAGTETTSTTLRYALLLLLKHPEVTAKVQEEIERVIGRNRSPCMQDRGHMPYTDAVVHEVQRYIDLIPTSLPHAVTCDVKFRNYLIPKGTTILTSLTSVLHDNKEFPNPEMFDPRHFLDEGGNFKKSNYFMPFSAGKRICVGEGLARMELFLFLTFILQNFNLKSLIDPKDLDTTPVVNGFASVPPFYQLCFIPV

Homo sapiens [7] = species: Homo sapiens; test: Selectivity index, ratio of IC50 for inhibition of alpha 2C adrenergic receptor (unknown origin) to IC50 for antagonist activity at human CXCR4 receptor expressed in CCRF-CEM cells; format: cell-based
[8] = Cmax in mouse at 3 mg/kg, po measured after 8 hrs by LC-MS/MS analysis; format: ADME, organism-based; design: route oral, time 8 hrs, dose 3 mg/kg; conditions: in vivo
[9] = target: Neuronal acetylcholine receptor subunit alpha-7 (Homo sapiens, UniProt P36544); test: Inhibition of alpha7 nicotinic acetylcholine receptor (unknown origin)
Sequence of Neuronal acetylcholine receptor subunit alpha-7 (P36544 whole entry): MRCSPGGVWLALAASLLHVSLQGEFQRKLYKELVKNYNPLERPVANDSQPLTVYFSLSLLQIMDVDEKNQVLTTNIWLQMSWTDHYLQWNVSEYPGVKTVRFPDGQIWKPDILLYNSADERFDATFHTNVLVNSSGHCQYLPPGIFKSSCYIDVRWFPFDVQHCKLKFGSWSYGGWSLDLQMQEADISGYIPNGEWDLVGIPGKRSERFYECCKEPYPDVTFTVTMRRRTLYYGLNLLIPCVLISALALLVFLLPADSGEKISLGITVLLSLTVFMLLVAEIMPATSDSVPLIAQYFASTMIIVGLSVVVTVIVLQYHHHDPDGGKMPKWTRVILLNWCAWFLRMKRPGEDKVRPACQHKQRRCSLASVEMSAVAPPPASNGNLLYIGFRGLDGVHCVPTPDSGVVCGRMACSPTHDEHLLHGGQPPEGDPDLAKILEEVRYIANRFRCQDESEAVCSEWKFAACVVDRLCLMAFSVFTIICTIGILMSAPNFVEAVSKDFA

[10] = Metabolic stability in mouse liver microsomes assessed compound remaining measured after 10 mins in presence of NADPH; format: ADME, Microsome; conditions: read-out: Stability
[11] = Drug concentration in mouse plasma at 30 mg/kg, po measured at 12 hrs by LC-MS analysis; format: ADME, organism-based
Cytochrome P450 2D6 = Cytochrome P450 2D6 (Homo sapiens, UniProt P10635); test: Inhibition of recombinant human CYP2D6 using AMMC as substrate preincubated for 30 mins followed by substrate addition measured after 45 mins by fluorescence based assay; format: ADME
Sequence of Cytochrome P450 2D6 (P10635 whole entry): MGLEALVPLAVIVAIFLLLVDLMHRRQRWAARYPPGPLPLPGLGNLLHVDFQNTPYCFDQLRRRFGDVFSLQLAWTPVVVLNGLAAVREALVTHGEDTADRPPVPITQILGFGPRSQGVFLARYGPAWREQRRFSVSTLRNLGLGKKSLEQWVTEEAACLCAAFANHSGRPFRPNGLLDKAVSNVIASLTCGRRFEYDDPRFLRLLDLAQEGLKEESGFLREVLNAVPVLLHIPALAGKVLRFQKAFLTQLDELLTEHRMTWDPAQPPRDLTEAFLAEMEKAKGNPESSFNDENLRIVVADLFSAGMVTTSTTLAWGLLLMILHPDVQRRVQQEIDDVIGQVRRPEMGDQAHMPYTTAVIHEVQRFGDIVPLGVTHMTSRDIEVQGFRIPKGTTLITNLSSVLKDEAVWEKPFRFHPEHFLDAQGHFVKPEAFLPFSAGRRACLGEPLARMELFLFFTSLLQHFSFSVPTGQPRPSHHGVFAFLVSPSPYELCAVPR

Homo sapiens [12] = species: Homo sapiens; test: Selectivity index, ratio of IC50 for inhibition of recombinant human CYP3A4 to IC50 for antagonist activity at human CXCR4 receptor expressed in CCRF-CEM cells; format: cell-based
Homo sapiens [13] = species: Homo sapiens; test: Selectivity index, ratio of IC50 for antagonist activity at mAChR (unknown origin) to IC50 for antagonist activity at human CXCR4 receptor
[14] = test system: Human immunodeficiency virus 1; test: Antiviral activity against HIV-1 NL4-3(X4) pseudovirus infected in human TZM-bl cells assessed as reduction in viral infectivity measured after 48 hrs of postinfection by luminescence assay; format: functional, organism-based; conditions: Human immunodeficiency virus 1, NL4-3(X4)
[15] = target: C-X-C chemokine receptor type 3 (Homo sapiens) (UniProt P49682); test: Inhibition of human CXCR3 at 10 uM relative to control
Sequence of C-X-C chemokine receptor type 3 (Homo sapiens) (P49682 whole entry): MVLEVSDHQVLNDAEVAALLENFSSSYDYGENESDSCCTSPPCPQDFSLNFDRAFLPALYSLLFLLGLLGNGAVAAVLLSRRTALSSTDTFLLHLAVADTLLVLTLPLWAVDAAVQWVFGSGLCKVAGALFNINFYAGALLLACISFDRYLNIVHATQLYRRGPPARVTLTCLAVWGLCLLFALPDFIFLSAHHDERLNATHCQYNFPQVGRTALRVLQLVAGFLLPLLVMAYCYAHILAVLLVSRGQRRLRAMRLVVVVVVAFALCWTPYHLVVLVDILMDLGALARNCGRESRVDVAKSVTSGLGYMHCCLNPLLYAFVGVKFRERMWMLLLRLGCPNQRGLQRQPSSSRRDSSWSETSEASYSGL

Homo sapiens [16] = species: Homo sapiens; test: Selectivity index, ratio of IC50 for inhibition of recombinant human CYP2C19 (unknown origin) to IC50 for antagonist activity at human CXCR4 receptor expressed in CCRF-CEM cells; format: cell-based
Homo sapiens [17] = species: Homo sapiens; test: Selectivity index, ratio of IC50 for inhibition of recombinant human CYP2C9 to IC50 for antagonist activity at human CXCR4 receptor expressed in CCRF-CEM cells; format: cell-based
Homo sapiens [18] = species: Homo sapiens; test: Selectivity index, ratio of IC50 for inhibition of recombinant human CYP1A2 to IC50 for antagonist activity at human CXCR4 receptor expressed in CCRF-CEM cells; format: cell-based
[19] = Half life in mouse at 3 mg/kg, iv measured after 8 hrs by LC-MS/MS analysis; format: ADME, organism-based; conditions: in vivo
[20] = Drug concentration in mouse plasma at 3 mg/kg, po measured at 12 hrs by LC-MS/MS analysis; format: ADME, organism-based
[21] = AUC(0 to 8 h)in mouse plasma at 3 mg/kg, po measured at 24 hrs by LC-MS/MS analysis; format: ADME, organism-based; design: route oral, dose 3 mg/kg, time 24 hrs; conditions: in vivo
Homo sapiens [22] = species: Homo sapiens; test: Selectivity index, ratio of IC50 for inhibition of recombinant human CYP2C8 to IC50 for antagonist activity at human CXCR4 receptor expressed in CCRF-CEM cells; format: cell-based
Homo sapiens [23] = species: Homo sapiens; test: Selectivity index, ratio of IC50 for inhibition of kappa opioid receptor (unknown origin) to IC50 for antagonist activity at human CXCR4 receptor expressed in CCRF-CEM cells; format: cell-based
[24] = Permeability of compound at pH 7.4 incubated for 4 hrs by PAMPA assay; format: ADME; conditions: read-out: permeability
Homo sapiens [25] = species: Homo sapiens; test: Selectivity index, ratio of IC50 for inhibition of M2 mAChR receptor (unknown origin) to IC50 for antagonist activity at human CXCR4 receptor expressed in CCRF-CEM cells; format: cell-based
[26] = AUC(0 to 8 h) in mouse plasma at 3 mg/kg, iv measured at 24 hrs by LC-MS/MS analysis; format: ADME, organism-based; design: route intravenous, time 24 hrs, dose 3 mg/kg; conditions: in vivo
Cytochrome P450 3A4 = Cytochrome P450 3A4 (Homo sapiens, UniProt P08684); test: Inhibition of CYP3A4 (unknown origin); format: ADME
Sequence of Cytochrome P450 3A4 (P08684 whole entry): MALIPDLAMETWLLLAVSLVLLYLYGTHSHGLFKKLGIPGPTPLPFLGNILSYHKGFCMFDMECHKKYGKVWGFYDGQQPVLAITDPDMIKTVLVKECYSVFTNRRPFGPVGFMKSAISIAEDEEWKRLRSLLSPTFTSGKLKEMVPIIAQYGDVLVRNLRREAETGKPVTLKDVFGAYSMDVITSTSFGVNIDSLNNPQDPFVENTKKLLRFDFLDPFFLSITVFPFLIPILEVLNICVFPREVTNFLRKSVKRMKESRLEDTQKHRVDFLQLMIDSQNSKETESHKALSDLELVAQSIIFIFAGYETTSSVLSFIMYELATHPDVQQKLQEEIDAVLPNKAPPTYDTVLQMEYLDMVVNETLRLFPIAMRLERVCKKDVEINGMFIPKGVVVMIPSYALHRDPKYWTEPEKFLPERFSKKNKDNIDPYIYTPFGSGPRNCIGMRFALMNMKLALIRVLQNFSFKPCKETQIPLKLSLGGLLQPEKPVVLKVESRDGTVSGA

[27] = target: C-C chemokine receptor type 7 (Homo sapiens) (UniProt P32248); test: Inhibition of human CCR7 at 10 uM relative to control
Sequence of C-C chemokine receptor type 7 (Homo sapiens) (P32248 whole entry): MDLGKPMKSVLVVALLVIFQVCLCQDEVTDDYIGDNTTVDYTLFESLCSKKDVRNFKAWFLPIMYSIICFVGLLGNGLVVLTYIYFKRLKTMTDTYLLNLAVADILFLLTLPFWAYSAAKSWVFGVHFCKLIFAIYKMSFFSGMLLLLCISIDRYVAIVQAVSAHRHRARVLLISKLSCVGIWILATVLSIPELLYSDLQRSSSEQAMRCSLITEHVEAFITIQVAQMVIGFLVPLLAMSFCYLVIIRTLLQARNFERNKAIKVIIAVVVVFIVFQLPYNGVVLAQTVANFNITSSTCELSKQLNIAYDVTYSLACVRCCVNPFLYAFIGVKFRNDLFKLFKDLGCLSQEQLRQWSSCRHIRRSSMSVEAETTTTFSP

`CN(CCCCN(C[C@H]1Cc2ncccc2CN1)[C@H]1CCCc2cccnc21)C1CCC(F)(F)CC1` showed an IC50 [1] of over 30 µM, an inhibition [2] of under 5% and an inhibition [3] of under 5%. For the same compound, the bioavailability [4] was 21.5%, the bioavailability [5] was 27.1% and the CC50 at 4 h [6] was over 10 µM. It also gave an IC50 (Cytochrome P450 2C19) of over 20 µM, a Selectivity Index (Homo sapiens [7]) of over 1000 and a Cmax [8] of 12.8 ng/mL. It also gave an IC50 [9] of over 30 µM, a remaining at 10 min [10] of 35% and a concentration at 12 h [11] of 34.8 ng/mL. The IC50 (Cytochrome P450 2D6) was 13 µM, the Selectivity Index (Homo sapiens [12]) was over 710 and the Selectivity Index (Homo sapiens [13]) was over 710. For the same compound, the IC50 [14] was 0.007 µM, the inhibition [15] was under 5% and the Selectivity Index (Homo sapiens [16]) was over 710. The Selectivity Index (Homo sapiens [17]) was over 710, the Selectivity Index (Homo sapiens [18]) was over 710 and the half-life [19] was 5.89 h. It also gave a concentration at 12 h [20] of 1.5 ng/mL, an AUC [21] of 34.3 h/ng/mL and a Selectivity Index (Homo sapiens [22]) of over 710. It also gave a Selectivity Index (Homo sapiens [23]) of over 1000, a Papp at 4 h [24] of 31 ×10⁻⁶ cm/s and a Selectivity Index (Homo sapiens [25]) of over 1000. The AUC [26] was 265 h/ng/mL, the IC50 (Cytochrome P450 3A4) was over 20 µM and the inhibition [27] was under 5%.
